Results taken from PubChem BioAssay AID2060496 (Molecular Pharmacology Branch, DTP, NCI, 2025).
pIC50: −log10 of the molar value.

Test system: 276233-004-R-J1-PDC complex spheroid viability
Assay: Anticancer human tumor 276233-004-R-J1-PDC patient-derived colon adenocarcinoma cell line growth inhibition [GQUAD]
Conditions: for pIC50: curve of first compound; for viability, T/C: stronger effect = lower value
Text: DNA G-quadruplex Stabilizer Agents in Combinations in Complex Spheroids
A high-throughput screen of multi-cell type tumor spheroids was designed to identify active combinations of DNA G-quadruplex stabilizer agents and targeted small molecules. Complex spheroids include a stromal component modeled by human endothelial cells (HUVEC) and fibroblasts modeled by human mesenchymal stem cells (MSCs). The concentration ranges selected for each drug and investigational agent were based upon clinically achievable concentrations if the clinical Cmax of the agent was known.
Compounds. The drugs and investigational agents: pidnarulex (CX-5461; NSC782164), APTO-253 (NSC789042), BRACO-19 (NSC847499), peposertib (NSC802822), ceralasertib (NSC780249), elimusertib (NSC800525), camonsertib (NSC841442), AZD-1390 (NSC803789), olaparib (NSC753686), talazoparib (NSC767125), ART-558 (NSC835418), sotorasib (NSC818433), MRTX-1133 (NSC836407), SN-38 (NSC673596), topotecan (NSC609699), etoposide (NSC141540), doxorubicin (NSC123127), gemcitabine (NSC613327), 5-fluorouracil (NSC19893), paclitaxel (NSC125973), vemurafenib (NSC761431), panobinostat (NSC761190), R-306465 (JNJ-16241199; NSC773264), adavosertib (NSC754352), TP-3654 (NSC805149), carboplatin (NSC241240), KSQ-4279 (NSC840948), and staurosporine (NSC755774) were obtained from the National Cancer Institute (NCI) Developmental Therapeutics Program Chemical Repository (34). The FDA-approved anticancer drug set is available from the NCI Developmental Therapeutics Program. […] The stock solutions were prepared in dimethyl sulfoxide (DMSO, Sigma-Aldrich, St. Louis, MO, cat. D2650) at 800-fold the tested concentration and stored at -70 degrees C prior to their use. All drugs and investigational agents were tested over a range starting from a high concentration at or near the clinical Cmax and decreasing in half-log increments. If the clinical Cmax for an agent had not been determined, the highest concentration tested was 10 microM.
2.3 Cell Culture. All cells were maintained in an incubator at 37 degrees C and 5% CO2 with 95% humidity. The PDC lines were cultured according to standard operating procedures established by the NCI PDMR. All PDCs were thawed and cultured in Matrigel-coated flasks prepared with a working solution of 1X Ham's F-12 nutrient mix, without supplementation (Invitrogen, cat. 11765054), 100 U/mL penicillin-streptomycin (Invitrogen, cat. 15140122), and 2.5% Matrigel (Corning Inc., cat. 354248) for the first three passages. The 857933-349-R-J2-PDC line was cultured in 6C/Colon 1B media, which includes advanced DMEM/F-12 (Thermo Fisher Scientific, cat. 12634028), 10 mM HEPES (Thermo Fisher Scientific, cat. 15630080), 1X GlutaMAX supplement (Thermo Fisher Scientific, cat. 35050061), 0.1 mg/mL primocin (InvivoGen, cat. ant-pm-2), 10% defined fetal bovine serum, heat inactivated (HyClone Laboratories Inc., cat. SH30070.03HI), 50% L-WRN conditioned media (ATCC, cat. CRL-3276), 1.25 mM N-Acetyl-L-cysteine (Sigma-Aldrich, cat. A9165), 10 mM nicotinamide (Sigma-Aldrich, cat. N0636), 1X B-27 supplement (Thermo Fisher Scientific, cat. 17504044), 1X N-2 supplement (Thermo Fisher Scientific, cat. 17502048), 10 microM Y-27632 dihydrochloride (Tocris Bioscience, cat. 1254), and 50 ng/mL human EGF recombinant protein (Thermo Fisher Scientific, cat. PHG0311). The 485176-168-R4-J1-PDC line was cultured in Panc media, which includes all 6C/Colon 1B media components plus 100 ng/mL human FGF-10 (Thermo Fisher Scientific, cat. 100-26), 500 nM SB-431542 (Selleckchem, cat. S1067), and gastrin (Tocris, cat. 3006).
[…]

[1] = second compound 0.0316 µM, first compound 0.0316 µM
[2] = second compound 0.0316 µM, first compound 0.1 µM
[3] = second compound 0.0316 µM, first compound 0.316 µM
[4] = second compound 0.0316 µM, first compound 1 µM
[5] = second compound 0.0316 µM, first compound 3.16 µM
[6] = second compound 0.0316 µM, first compound 10 µM
[7] = second compound 0.1 µM, first compound 0.0316 µM
[8] = second compound 0.1 µM, first compound 0.1 µM
[9] = second compound 0.1 µM, first compound 0.316 µM
[10] = second compound 0.1 µM, first compound 1 µM
[11] = second compound 0.1 µM, first compound 3.16 µM
[12] = second compound 0.1 µM, first compound 10 µM
[13] = second compound 0.316 µM, first compound 0.0316 µM
[14] = second compound 0.316 µM, first compound 0.1 µM
[15] = second compound 0.316 µM, first compound 0.316 µM
[16] = second compound 0.316 µM, first compound 1 µM
[17] = second compound 0.316 µM, first compound 3.16 µM
[18] = second compound 0.316 µM, first compound 10 µM
[19] = second compound 1 µM, first compound 0.0316 µM
[20] = second compound 1 µM, first compound 0.1 µM
[21] = second compound 1 µM, first compound 0.316 µM
[22] = second compound 1 µM, first compound 1 µM
[23] = second compound 1 µM, first compound 3.16 µM
[24] = second compound 1 µM, first compound 10 µM
[25] = second compound 3.16 µM, first compound 0.0316 µM
[26] = second compound 3.16 µM, first compound 0.1 µM
[27] = second compound 3.16 µM, first compound 0.316 µM
[28] = second compound 3.16 µM, first compound 1 µM
[29] = second compound 3.16 µM, first compound 3.16 µM
[30] = second compound 3.16 µM, first compound 10 µM
[31] = second compound 10 µM, first compound 0.0316 µM
[32] = second compound 10 µM, first compound 0.1 µM
[33] = second compound 10 µM, first compound 0.316 µM
[34] = second compound 10 µM, first compound 1 µM
[35] = second compound 10 µM, first compound 3.16 µM
[36] = second compound 10 µM, first compound 10 µM
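Note: spheroids exposed to drugs for seven days.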
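Throughout, for viability, T/C: 100% = DMSO vehicle control viability.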

Q: What does the source list for `COc1cc(C2c3cc4c(cc3C(OC3OC5COC(C)OC5C(O)C3O)C3COC(=O)C23)OCO4)cc(OC)c1O` (centres undefined) + CN(C)c1ccc(Nc2c3ccc(NC(=O)CCN4CCCC4)cc3nc3cc(NC(=O)CCN4CCCC4)ccc23)cc1?
A: pIC50 (second compound 0.0316 µM): < 5.00; pIC50 (second compound 0.1 µM): < 5.00; pIC50 (second compound 0.316 µM): < 5.00; pIC50 (second compound 1 µM): < 5.00; pIC50 (second compound 3.16 µM): < 5.00; pIC50 (second compound 10 µM): 5.48; viability, T/C [1]: 95.7%; viability, T/C [2]: 106%; viability, T/C [3]: 98.9%; viability, T/C [4]: 90.4%; viability, T/C [5]: 87%; viability, T/C [6]: 98.8%; viability, T/C [7]: 75.8%; viability, T/C [8]: 88.2%; viability, T/C [9]: 92.7%; viability, T/C [10]: 82.3%; viability, T/C [11]: 77.7%; viability, T/C [12]: 78.4%; viability, T/C [13]: 60.1%; viability, T/C [14]: 69%; viability, T/C [15]: 55.5%; viability, T/C [16]: 69.4%; viability, T/C [17]: 61.2%; viability, T/C [18]: 61.3%; viability, T/C [19]: 56.6%; viability, T/C [20]: 45.2%; viability, T/C [21]: 58.5%; viability, T/C [22]: 62.3%; viability, T/C [23]: 55.4%; viability, T/C [24]: 55%; viability, T/C [25]: 54.8%; viability, T/C [26]: 49%; viability, T/C [27]: 52.2%; viability, T/C [28]: 56.5%; viability, T/C [29]: 61.5%; viability, T/C [30]: 54.6%; viability, T/C [31]: 46.8%; viability, T/C [32]: 59.5%; viability, T/C [33]: 47.3%; viability, T/C [34]: 57.4%; viability, T/C [35]: 45.7%; viability, T/C [36]: 48.5%

Q: How did the pIC50 (second compound 0.0316 µM) turn out when `Nc1ccn(C2OC(CO)C(O)C2(F)F)c(=O)n1` (centres undefined) + CN(C)c1ccc(Nc2c3ccc(NC(=O)CCN4CCCC4)cc3nc3cc(NC(=O)CCN4CCCC4)ccc23)cc1 was run?
A: < 5.00

Q: What about the pIC50 (second compound 0.1 µM) of the same compound?
A: < 5.00

Q: And the pIC50 (second compound 0.316 µM)?
A: < 5.00

Q: And the pIC50 (second compound 1 µM)?
A: < 5.00

Q: What about the pIC50 (second compound 3.16 µM) of the same compound?
A: < 5.00

Q: What about the pIC50 (second compound 10 µM) of the same compound?
A: < 5.00

Q: What about the viability, T/C [1] of the same compound?
A: 97.1%

Q: And the viability, T/C [2]?
A: 109%

Q: What about the viability, T/C [3] of the same compound?
A: 96.2%

Q: And the viability, T/C [4]?
A: 90.6%

Q: And the viability, T/C [5]?
A: 79.6%

Q: What about the viability, T/C [6] of the same compound?
A: 59%

Q: And the viability, T/C [7]?
A: 86.1%

Q: What about the viability, T/C [8] of the same compound?
A: 88.6%

Q: What about the viability, T/C [9] of the same compound?
A: 89.7%

Q: And the viability, T/C [10]?
A: 94.5%

Q: And the viability, T/C [11]?
A: 73.8%

Q: What about the viability, T/C [12] of the same compound?
A: 65%

Q: And the viability, T/C [13]?
A: 71.8%

Q: What about the viability, T/C [14] of the same compound?
A: 78.7%

Q: What about the viability, T/C [15] of the same compound?
A: 59.6%

Q: And the viability, T/C [16]?
A: 56.3%

Q: And the viability, T/C [17]?
A: 56.6%

Q: And the viability, T/C [18]?
A: 66.9%

Q: What about the viability, T/C [19] of the same compound?
A: 70.8%

Q: What about the viability, T/C [20] of the same compound?
A: 53.9%

Q: And the viability, T/C [21]?
A: 53.6%

Q: And the viability, T/C [22]?
A: 51%

Q: What about the viability, T/C [23] of the same compound?
A: 57.9%

Q: And the viability, T/C [24]?
A: 57.8%

Q: And the viability, T/C [25]?
A: 64.2%

Q: And the viability, T/C [26]?
A: 60.5%

Q: And the viability, T/C [27]?
A: 56%

Q: And the viability, T/C [28]?
A: 58.1%

Q: And the viability, T/C [29]?
A: 44.7%

Q: And the viability, T/C [30]?
A: 53.8%

Q: And the viability, T/C [31]?
A: 56.7%

Q: What about the viability, T/C [32] of the same compound?
A: 57.9%

Q: What about the viability, T/C [33] of the same compound?
A: 47.5%

Q: And the viability, T/C [34]?
A: 65.9%

Q: And the viability, T/C [35]?
A: 61.4%

Q: What about the viability, T/C [36] of the same compound?
A: 47.2%
